From patent US8372872B2, “Methods for concomitant treatment of theophylline and febuxostat” (Takeda Pharmaceuticals U.S.A., Inc., priority 2010, dated 2013)
Blank lines part the entries; values can stand above or below the compound they belong to.

How the values were obtained:
[1] = patients co-administered allopurinol and theophylline; cited from earlier work
[2] = clinical; conditions: both, human, in vivo, po
[3] = adults; cited from earlier work
[4] = febuxostat vs placebo regimen, in words

SMILES: Oc1ncnc2[nH]ncc12 [allopurinol]
- decrease of theophylline clearance [1]: 21%
- increase of theophylline AUC [1]: up to 27%
- increase of theophylline half-life [1]: approximately 25%

SMILES: Cn1c(=O)c2[nH]cnc2n(C)c1=O [Theophylline, 1,3-dimethyl-7H-purine-2,6-dione]
- point estimates for theophylline Cmax, AUC(0-tlqc) and AUC(0-inf) (both, human, in vivo): ~100%
- estimated mean T1/2, CL/F and Vz/F of theophylline, compared between regimens [4]: generally similar
- mean AUC(0-inf) of theophylline, compared between regimens [4]: comparable
- Tmax [2]: 7 to 9 h
- Vd/F [2]: 58.2 L
- half-life [2]: 9.69 h
- biological half-life [3]: about 6 hours

- maximum observed theophylline concentration (Cmax) and exposure to theophylline (AUC), febuxostat vs placebo (in words): comparable
SMILES: Cc1nc(-c2ccc(OCC(C)C)c(C#N)c2)sc1C(=O)O [Febuxostat]
